Structures are written as SMILES. Read-outs that look alike come from different tables or passages of the source.

From US12391685B2, “Inhibitors of RNA-guided nuclease target binding and uses thereof” (THE BROAD INSTITUTE, INC., priority 2018, dated 2025) come the findings set out here.

Data set [1] concerns the target T1, SpCas9 (Streptococcus pyogenes serotype M1, UniProt Q99ZW2). Kind of data set: eGFP-disruption assay in U2OS.eGFP.PEST cells. The data set is classed as cell-based, S. pyogenes. More on the design: host or cells: U2OS.eGFP.PEST. As to conditions: for inhibition at 15 µM: screen of structural analogs of BRD7087, 15 μM compound. The procedure: SpCas9 nuclease activity in eGFP-disruption assay. Approximately 200,000 U2OS.eGFP-PEST cells were nucleofected following two different methods either by nucleofecting plasmids or RNP using the SE Cell Line 4D-Nucleofector™ X Kit (Lonza) according to the manufacturer's protocol. In the plasmid nucleofection method, cells were nucleofected either with 440 ng of SpCas9 (Addgene Plasmid #43861) or 400 ng of SpCas9 along with 40 ng of sgRNA (pFYF1320 eGFP Site #1, Addgene Plasmid #47511). Cells nucleofected only with SpCas9-expressing plasmid were used as the transfection control. In the RNP nucleofection method, either […] SpCas9 or 20 pmol preformed SpCas9:gRNA (eGFP Site #1) complex were nucleofected. Approximately 20,000 transfected cells/well were plated in 4 replicates in a 96-well plate (Corning® 3904). Cells were incubated with the indicated amount of compound or DMSO for 24 h post transfection. A DMSO solution of compound (20 mM) was resuspended in the 10% FBS containing growth media and thoroughly mixed before adding to the cells. Cells were then fixed using 4% paraformaldehyde and imaged with the HCS NuclearMask™ Blue Stain (Life Technologies) as the nuclear counter-staining agent. Imaging was performed with an ImageXpress Micro automated microscope (Molecular Devices) at 10× magnification under three excitation channels (blue, green and red) acquiring nine sites per well. Images were analyzed using MetaXpress software and data were plotted using GraphPad Prism 6.
The Z′-value was calculated using the equation (1), where σ1 and σ2 are the standard deviations of DMSO control and SpCas9:gRNA control respectively. μ1 and μ2 are the mean % GFP^− cell population for DMSO control and SpCas9:gRNA control, respectively.

Data set [2] concerns the target T1, SpCas9. As to the kind of experiment: mKate2-disruption assay in HEK293T cells. The data set is classed as cell-based, S. pyogenes. As to conditions: 1.5-5 μM, 24 h. On the procedure: mKate2-disruption assay. Approximately 8,000 cells/well were seeded in a 96-well plate 24 h before transient transfection with 100 ng of either CgRNA (Addgene Plasmid #64955) or T1gRNA (Addgene Plasmid #62717) plasmids using Lipofectamine 2000 (Life Technologies). Transfected cells were allowed to grow in the indicated amount of small molecule or DMSO for 24 h. Cells were then fixed using 4% paraformaldehyde and imaged with the HCS NuclearMask™ Blue Stain (Life Technologies) as the nuclear counter-staining agent. Imaging was performed with an ImageXpress Micro automated microscope (Molecular Devices) at 20× magnification under two excitation channels (blue and red) with 9 acquisition sites per well. Images were analyzed using the MetaXpress software to determine the % mKate2 positive cells and data was plotted using GraphPad Prism 6. The Z′-value was calculated following the formula: Z′=1−(3(σ1+σ2))/(|μ1−μ2|) where σ1 and σ2 are the standard deviations of CgRNA transfected wells and T1gRNA transfected wells respectively. μ1 and μ2 are the mean % RFP^+ cell population for CgRNA transfected wells and T1gRNA transfected wells, respectively.

Data set [3] has as its target T1, SpCas9. As to the kind of experiment: NHEJ assay in HEK293T cells. The data set is classed as cell-based, S. pyogenes. As to conditions: 2-10 μM, 24 h. On the procedure:
NHEJ assay. Approximately 8,000 cells/well were seeded in a 96-well plate 24 h before transient transfection with a total 100 ng of DN66 (mCherry—TAG—GFP reporter) and DN78 (SpCas9 and gRNA) plasmids (1:1) using Lipofectamine 2000 (Life Technologies) (Nguyen et al., 2016b). Transfected cells were incubated with the indicated amount of small molecule or DMSO for 24 h. Cells were then fixed using 4% paraformaldehyde and imaged with the HCS NuclearMask™ Blue Stain (Life Technologies) as the nuclear counter-staining agent. Imaging was performed with an ImageXpress Micro automated microscope (Molecular Devices) at 4× magnification under three excitation channels (blue, green and red) with 9 acquisition sites per well. Images were analyzed in the MetaXpress software to determine the % NHEJ and the data were plotted using GraphPad Prism 6. The Z′-value was calculated following the formula: Z′=1−(3(σ1+σ2))/(|μ1−μ2|) where σ1 and σ2 are the standard deviations of DN66 transfected wells and (DN66+DN78) transfected wells respectively. μ1 and μ2 are the mean % GFP cell population for DN66 transfected wells and (DN66+DN78) transfected wells respectively.

Data set [4] has as its system U2OS.eGFP.PEST cells and HEK293T cells. As to the kind of experiment: Cell viability (ATP content). The following applies: 5-20 μM, 24 h.
In data set [5] the target is T2, dCas9-based transcription-activation complex (Streptococcus pyogenes serotype M1, UniProt Q99ZW2, D10A, form not given).
T2 construct: "dSpCas9|Feng Zhang lab|NA"; The MS2-p65-HSF1(-GFP) effector is a separate chain recruited through MS2 aptamers in the sgRNA
Kind of data set: dCas9-based transcription activation of HBG1 in HEK293FT cells (RT-qPCR). As to conditions: for inhibition of transcriptional activation: 20 μM. The data set is classed as cell-based, S. pyogenes. On the procedure:
Transcription activation experiments and quantitative RT-PCR analyses. HEK293FT cells were maintained in high glucose DMEM with glutamax (Life Technologies) and supplemented with 10% FBS (Life Technologies), 1% penicillin-streptomycin (Life Technologies) and 1 mM sodium pyruvate (Life Technologies). For transcription activation experiments, 20,000 cells/well were plated in a poly D-lysine-coated 96-well plate. The cells were transiently transfected with a 1:1:1 mass ratio of the dCas9 plasmid, MS2-P65-HSF1 effector plasmid and the sgRNA plasmid targeting the HBG1 gene or an RFP control plasmid. A total of 0.3 μg plasmid DNA was transfected using Lipofectamine 2000 (Life Technologies) according to manufacturer's protocol. Immediately after transfection, the cells were treated with an appropriate dose of the small-molecule inhibitors. A DMSO solution of compound (20 mM) was resuspended in the 10% FBS containing growth media and thoroughly mixedbefore adding to the cells. After 48 h the cells were lysed and 5 μL of the cell lysate was used to perform reverse transcription using the RevertAid RT Reverse Transcription Kit (Thermo Fischer Scientific) as described by Joung J. et al. qPCR reactions were performed to quantify RNA expression using the TaqMan probes (Life Technologies, HBG1/HBG2: Hs00361131_g1, ACTB: Hs01060665_g1) and TaqMan Fast Advanced Master Mix (Life Technologies) in 5 μL multiplexed reactions and 384-well format using the LightCycler 480 Instrument II (Roche). For each sample, four technical replicates were performed. Data were analyzed using the LightCycler 480 software (Roche) by the ΔΔCt method: Ct values for the gene of interest (HBG1) were normalized to Ct values for the housekeeping gene (ACTB), and fold-changes in the expression level of gene of interest were normalized to RFP-transfected control. The data is reported as mean±S.E.M. for technical replicates.
In general terms: Quantitative PCR measures a nucleic acid by following its amplification.

Data set [6] addresses T1, SpCas9. Kind of data set: In vitro pull-down assay with preformed SpCas9:gRNA complex. The data set is classed as binding, S. pyogenes. Details: made in house; host or cells: E. coli Rosetta (DE3). On the procedure: In vitro pull-down assay. Pull-down of SpCas9 by biotinylated compound was performed by incubating a preformed SpCas9:gRNA complex with biotin-compound pre-loaded streptavidin magnetic beads. Initially, a 5 μM biotin compound was incubated with 120 μL streptavidin magnetic bead suspension for 30 min in 1× Cas9 activity buffer (20 mM Tris-HCl buffer, 150 mM KCl, 5 mM MgCl2, 1 mM DTT, pH 7.5). Next, beads were collected and washed with buffer twice and resuspended in 120 μL of 1× Cas9 activity buffer and distributed in 6 different tubes. A 0.3 μM of 480 μL of preformed SpCas9:gRNA complex were added to each tube along with the unlabeled BRD3433 compound (5 μM and 10 μM) in the competition experiment. The tubes were incubated at 4° C. for 12 h before collecting the beads and washed with 500 μL 1× Cas9 activity buffer. The beads were resuspended in 1× SDS gel loading buffer and denatured at 98° C. for 10 min. The samples were analyzed by electrophoresis followed by staining with Coomassie for 15 min before imaging.

Data set [7] deals with T1, SpCas9. As to the kind of experiment: HiBiT assay in U2OS.eGFP.PEST cells. Details: host or cells: U2OS.eGFP.PEST. Format: cell-based, S. pyogenes. As to conditions: 24 h. The procedure:
HiBiT assay. For SpCas9 expression in cells, the previously described JDS246 plasmid was used (Kleinstiver et al., 2015b). ssODN donor DNA template with the HiBiT tag was purchased as single-stranded Ultramer DNA Oligonucleotides (IDT) and resuspended to 40 μM in nuclease-free water. For the assay, 2×10^5 cells were co-transfected with 300 ng Cas9 plasmid, 75 ng sgRNA plasmid and 100 ng ssODN using the DN-100 program of Lonza 4D nucleofector according to the manufacturer's protocols. For negative controls, either the sgRNA plasmid or the ssODN was omitted. 20,000 transfected cells were plated in each well of a 96-well plate (Corning 3904). Immediately after transfection, cells were treated with varying concentrations of BRD0539 or BRD3433 and incubated at 37° C. with 5% CO2. 24 h after transfection, the cells were washed once with PBS and kept in 80 μL PBS. An equal volume of the Nano-Glo HiBiT Lytic Reagent (Promega N3030), consisting of Nano-Glo HiBiT Lytic Buffer, Nano-Glo HiBiT Lytic Substrate, and LgBiT Protein, was added according to the manufacturer's protocol, and cells were incubated for 10 min at ambient temperature with shaking at 600 rpm (Schwinn et al., 2018a). The cells were then incubated for an additional 10 min without shaking at room temperature to allow equilibration of the HiBiT and LgBiT in the lysate. The lysate was then transferred to a white plate (Corning 3990) and luminescence was measured using an Envision plate reader (Perkin-Elmer) with 1 s of integration time.

The mark [8] stands for this setting: 24 h, U2OS.eGFP.PEST cells, read-out: Average Inhibition activity.
Setting [9] is: 24 h, U2OS.eGFP.PEST cells, read-out: Inhibition activity Rep 1.
[10] abbreviates: 24 h, U2OS.eGFP.PEST cells, read-out: Inhibition activity Rep 2.

T1 sequence (Q99ZW2 whole entry): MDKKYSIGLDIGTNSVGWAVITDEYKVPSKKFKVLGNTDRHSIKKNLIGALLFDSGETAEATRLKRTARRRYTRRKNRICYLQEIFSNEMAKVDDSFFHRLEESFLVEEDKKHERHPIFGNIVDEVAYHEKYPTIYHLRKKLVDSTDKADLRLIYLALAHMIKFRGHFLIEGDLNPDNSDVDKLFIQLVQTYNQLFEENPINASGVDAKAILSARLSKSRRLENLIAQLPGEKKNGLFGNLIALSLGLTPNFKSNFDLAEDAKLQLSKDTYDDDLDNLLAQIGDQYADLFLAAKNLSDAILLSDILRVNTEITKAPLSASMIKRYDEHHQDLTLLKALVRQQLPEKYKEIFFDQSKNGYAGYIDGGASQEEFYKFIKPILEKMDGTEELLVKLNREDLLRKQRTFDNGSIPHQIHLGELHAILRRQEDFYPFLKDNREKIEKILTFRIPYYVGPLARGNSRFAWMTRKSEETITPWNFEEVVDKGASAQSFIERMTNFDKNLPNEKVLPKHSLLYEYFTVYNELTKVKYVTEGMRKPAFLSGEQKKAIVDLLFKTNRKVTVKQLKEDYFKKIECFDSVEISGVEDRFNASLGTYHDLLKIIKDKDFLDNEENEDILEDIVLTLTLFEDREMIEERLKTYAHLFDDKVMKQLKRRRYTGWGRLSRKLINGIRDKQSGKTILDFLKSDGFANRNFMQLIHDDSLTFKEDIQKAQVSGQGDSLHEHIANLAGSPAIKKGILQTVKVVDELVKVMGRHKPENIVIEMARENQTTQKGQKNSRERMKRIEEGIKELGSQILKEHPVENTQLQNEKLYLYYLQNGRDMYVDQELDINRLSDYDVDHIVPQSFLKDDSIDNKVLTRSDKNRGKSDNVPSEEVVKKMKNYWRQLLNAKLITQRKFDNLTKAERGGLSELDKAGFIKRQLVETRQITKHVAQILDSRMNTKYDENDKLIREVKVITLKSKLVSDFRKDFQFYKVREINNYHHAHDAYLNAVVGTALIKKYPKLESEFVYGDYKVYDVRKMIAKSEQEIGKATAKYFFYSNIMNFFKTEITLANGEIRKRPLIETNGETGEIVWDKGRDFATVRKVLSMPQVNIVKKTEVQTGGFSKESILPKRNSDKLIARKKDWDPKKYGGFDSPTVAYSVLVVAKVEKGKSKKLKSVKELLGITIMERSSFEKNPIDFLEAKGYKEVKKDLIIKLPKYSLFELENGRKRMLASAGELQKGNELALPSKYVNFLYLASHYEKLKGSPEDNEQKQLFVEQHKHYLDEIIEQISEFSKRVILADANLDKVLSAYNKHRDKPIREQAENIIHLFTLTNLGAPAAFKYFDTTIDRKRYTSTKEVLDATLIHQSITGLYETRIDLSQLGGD

`COc1ccc(-c2ccc3c(c2)[C@H]2[C@H](CCN2Cc2ccncc2)[C@@H](CO)N3)cc1` [BRD5779, ((3aR,4S,9bR)-8-(4-Methoxyphenyl)-1-(pyridin-4-ylmethyl)-2,3,3a,4,5,9b-hexahydro-1H-pyrrolo[3,2-c]quinolin-4-yl) methanol]: in data set [1] (U2OS.eGFP.PEST cells), the “inhibition of SpCas9 in the eGFP-disruption assay (in words)” value is on record as “dose-dependent inhibition”. The “inhibition of SpCas9 in the mKate2 disruption assay (in words)” value in data set [2] is “dose-dependent inhibition”. Also, in data set [3], the “inhibition of SpCas9 in the NHEJ assay (in words)” value is “dose-dependent inhibition”. In addition, in data set [4], the “cytotoxicity (in words)” value is recorded as “non-cytotoxic”. Further, the “inhibition of transcriptional activation” value in data set [5] is around 60%.

One may read the inhibition as how much of the control response was suppressed. Usually EC50 stands for the concentration needed to bring the measured effect to its halfway point. As to `CN1c2ccc(C#Cc3cccnc3)cc2[C@@H]2[C@@H](CCN2C(=O)C2CCCCC2)[C@H]1CO` [BRD20322, Cyclohexyl((3aR,4S,9bS)-4-(hydroxymethyl)-5-methyl-8-(pyridin-3-ylethynyl)-2,3,3a,4,5,9b-hexahydro-1H-pyrrolo[3,2-c]quinolin-1-yl) methanone], the values for the inhibition at 15 µM in data set [1] (setting [8]), in data set [1] (setting [9]) and in data set [1] (setting [10]) were 53.5%, 47.6% and 59.4%, respectively. Also, the “inhibition of transcriptional activation” value in data set [5] was 89%. The EC50 in data set [5] (read-out: EC50, inhibition of the transcription activation complex) came to 12.2 µM.

As for `COc1cccc(-c2ccc3c(c2)[C@H]2[C@H](CCN2C(=O)Cc2ccncc2)[C@H](CNC(=O)CCOCCOCCOCCNC(=O)CCCC[C@@H]2SC[C@@H]4NC(=O)N[C@@H]42)N3C)c1` [biotinylated BRD3433, N-(1-((3aS,4R,9bR)-8-(3-methoxyphenyl)-5-methyl-1-(2-(pyridin-4-yl)acetyl)-2,3,3a,4,5,9b-hexahydro-1H-pyrrolo[3,2-c]quinolin-4-yl)-3-oxo-6,9,12-trioxa-2-azatetradecan-14-yl)-5-((3aS,4S,6aR)-2-oxohexahydro-1H-thieno[3,4-d]imidazol-4-y1) pentanamide], the “pull-down of SpCas9 (gel electrophoresis)” value in data set [6] is “enrichment of SpCas9 in the eluent”.

As for `COc1cccc(-c2ccc3c(c2)[C@H]2[C@H](CCN2C(=O)Cc2ccncc2)[C@H](CO)N3C)c1` [BRD3433, 1-((3aS,4R,9bR)-4-(hydroxymethyl)-8-(3-methoxyphenyl)-5-methyl-2,3,3a,4,5,9b-hexahydro-1H-pyrrolo[3,2-c]quinolin-1-yl)-2-(pyridin-4-yl) ethan-1-one], the EC50 worked out at 9.3 µM in data set [1] (EC50, dose-dependent inhibition of SpCas9, U2OS.eGFP.PEST cells, 24 h, tested from 2.8-17.3 μM) and 11 µM in data set [1] (eGFP-disruption assay, read-out: apparent EC50). Also, the “improvement in potency over BRD7087” value in data set [1] (eGFP-disruption assay) is 1.8 fold. Further, the inhibition at 15 µM in data set [1] (setting [8]) was 78.6%; in data set [1] (setting [9]), 82.2%; in data set [1] (setting [10]), 74.9%. Besides, in data set [7], the “inhibition of SpCas9 in the HiBiT assay (in words)” value is given as “dose-dependent inhibition”.
